Measured values from US20090081758A1, “Chimeric Cytochrome P450 Proteins and Methods of Use” (THE REGENTS OF THE UNIVERSITY OF MICHIGAN, priority 2007, published 2009).

Key:
[1] = biological target: PikC-RhFRED; experiment: Spectral substrate binding assay, PikC-RhFRED; set-up: species or system Streptomyces venezuelae; settings: Type I difference spectra, 1 μM P450, room temperature; read-out: Kd (dissociation constant)
Description: (§1) Spectral substrate binding assays were performed using a UV-visible spectrophotometer 300 Bio (Cary) at room temperature by titrating 30 mM substrate DMSO solution (blank DMSO for reference group) into 1 ml of 1 μM P450 sample in 1 μl aliquots, leading to substrate concentration ranging from 30 to 360 μM. The series of Type I difference spectra were used to deduce ΔA (Apeak(389)−Atrough(424)). Then, the data were fit to Michaelis-Menten equation to obtain the dissociation constant Kd. As mentioned above, one benefit of the fusion protein arrangement is the facility of the covalent linkage to stabilize productive interactions between the P450 and redox partner, thus enhancing electron transfer efficiency. […] To test whether this also applies to PikC-RhFRED, we first determined the substrate binding affinity of YC-17 and narbomycin toward both PikC and PikC-RhFRED.

[2] = biological target: wt-PikC (Streptomyces venezuelae, UniProt O87605); experiment: Spectral substrate binding assay, wt-PikC; settings: Type I difference spectra, 1 μM P450, room temperature; read-out: Kd (dissociation constant)
Description: as §1

[3] = tested on: PikC-RhFRED; experiment: Steady-state kinetics, substrate consumption by HPLC, PikC-RhFRED; type: biochemical, Streptomyces venezuelae; settings: kcat/Km of PikC-RhFRED relative to wt-PikC with Fdr and Fdx
Description: Subsequently, the kinetic parameters of PikC-RhFRED were compared with those of the PikC-Fdr-Fdx three component system. […] Moreover, the solubility limitation (less than 500 μM) of macrolides in aqueous solution prevented us from deducing the K, value. Therefore, the apparent specificity constants (kcat/Km) were determined by fitting the low-concentration data to the linear region of a Michaelis-Menten curve. […] In contrast, the specificity constants of wt-PikC partnered by Fdr and Fdx were 0.24 μM^−1·min^−1 for YC-17 and 0.31 μM^−1·min^−1 for narbomycin. It is evident that the fusion enhanced the catalytic activity approximately 4 fold for both YC-17 and narbomycin. […] The presumed de-coupling between electron transfer and hydroxylation may account for this difference.
The standard reaction contains 100 nM of PikC-RhFRED (or 150 nM of wt-PikC with 3.5 μM spinach ferredoxin and 0.1 U/ml spinach ferredoxin-NADP^+ reductase), 20˜250 μM substrate in 200 μl of desalting buffer (50 mM NaH2PO4, pH 7.3, 1 mM EDTA, 0.2 mM DTE, 10% glycerol). After pre-incubation at 30° C. for 5 min, the reaction was initiated by adding 1 μl of 50 mM NADPH and 50 μl aliquots were taken at 0 s, 20 s, and 40 s (or Os, 30 s, and 60 s when substrate concentration greater than 100 μM) to thoroughly mix with 2×100 μl of chloroform. […]

Chain of wt-PikC (O87605 whole entry): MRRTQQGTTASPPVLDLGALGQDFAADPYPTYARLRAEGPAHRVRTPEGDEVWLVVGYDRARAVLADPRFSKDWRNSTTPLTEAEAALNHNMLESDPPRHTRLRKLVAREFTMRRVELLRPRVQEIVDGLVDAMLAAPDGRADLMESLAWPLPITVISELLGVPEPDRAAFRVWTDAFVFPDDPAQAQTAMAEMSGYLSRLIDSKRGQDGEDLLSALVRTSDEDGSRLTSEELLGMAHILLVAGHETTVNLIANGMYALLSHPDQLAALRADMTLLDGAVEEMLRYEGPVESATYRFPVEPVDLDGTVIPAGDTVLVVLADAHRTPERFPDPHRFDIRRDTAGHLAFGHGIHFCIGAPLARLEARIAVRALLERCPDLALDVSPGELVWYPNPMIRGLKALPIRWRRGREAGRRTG

`CC[C@H]1OC(=O)[C@H](C)[C@@H](O[C@@H]2O[C@H](C)C[C@H](N(C)C)[C@H]2O)[C@@H](C)C[C@@H](C)C(=O)/C=C/[C@H]1C` [YC-17] was tested. Which Kd [1] did it give?
Its Kd is 92.6 ± 0.5 µM.

What about the Kd [2] of the same compound?
Its Kd is 113 ± 1.9 µM.

And the “enhancement of catalytic activity by fusion (PikC-RhFRED vs wt-PikC)” value [3]?
The value was “approximately 4 fold”.

What does the source list for `CC[C@H]1OC(=O)[C@H](C)C(=O)[C@H](C)[C@@H](O[C@@H]2O[C@H](C)C[C@H](N(C)C)[C@H]2O)[C@@H](C)C[C@@H](C)C(=O)/C=C/[C@H]1C` [narbomycin]?
Kd [1]: 215 ± 4.2 µM; Kd [2]: 288 ± 7.1 µM; enhancement of catalytic activity by fusion (PikC-RhFRED vs wt-PikC) [3]: approximately 4 fold
